The source of these data is patent US10414775B2 (Merck Sharp & Dohme Corp., priority 2016, dated 2019).

This series deals with T1, Human CYP8B1 (Homo sapiens, UniProt Q9UNU6).
T1 construct: tissue Xenotech; host or cells: human liver microsomes
T1 sequence (Q9UNU6 1-501): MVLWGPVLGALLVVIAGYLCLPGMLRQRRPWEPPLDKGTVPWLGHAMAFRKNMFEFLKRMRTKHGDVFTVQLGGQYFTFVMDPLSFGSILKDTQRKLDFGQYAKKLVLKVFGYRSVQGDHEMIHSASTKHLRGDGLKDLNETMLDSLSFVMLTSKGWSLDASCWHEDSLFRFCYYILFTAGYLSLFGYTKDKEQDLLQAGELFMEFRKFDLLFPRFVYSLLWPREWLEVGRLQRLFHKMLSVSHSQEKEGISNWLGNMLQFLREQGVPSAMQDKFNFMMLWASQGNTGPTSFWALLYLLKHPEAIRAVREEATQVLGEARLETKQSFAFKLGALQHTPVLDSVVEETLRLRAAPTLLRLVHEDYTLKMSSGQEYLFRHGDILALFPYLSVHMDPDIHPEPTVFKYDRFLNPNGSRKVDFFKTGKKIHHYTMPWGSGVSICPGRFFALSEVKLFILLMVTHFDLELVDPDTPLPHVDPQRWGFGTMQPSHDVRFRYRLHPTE
The series is described as follows: Human Cyp8B1 Liver Microsome Assay. It is filed as biochemical. The note with it: human liver microsomes; substrate 7α-hydroxy-4-cholesten-3-one, NADPH; 30 min pre-incubation, 45 min reaction; RapidFire MS readout. The procedure: Human Cyp8B1 Liver Microsome Assay To a 384 well polypropylene plate (Corning 3656), 250 nl of inhibitor in 100% DMSO (1.25% final DMSO concentration) was pre-plated using an Echo liquid handler (Labcyte Inc.). Human liver microsomes (Xenotech) were diluted in of 0.1 M phosphate buffer, pH 7.4, at a concentration of 65 μg/ml and 15 μL was added to the 384 well plate. The plates were incubated at ambient room temperature for 30 minutes. After pre-incubation with inhibitor, the reaction was initiated by adding 5 μl of substrate solution (4.0 μM 7α-hydroxy-4-cholesten-3-one(Toronto Research Chemicals), 2 mM of NADPH (Sigma), 0.1 M phosphate buffer (pH 7.4). The reaction was carried out for 45 minutes at ambient room temperature and was quenched by the addition of 50 μl of acetonitrile+0.1% vol/vol formic acid (FA)+300 nM 7α-hydroxy-4-cholesten-3-one-d7 (Toronto Research Chemicals). The plates were sealed and centrifuged at 3000 rpm for 5 minutes. Plates were loaded onto the Agilent RapidFire RF300 HTMS system, wherein samples were sipped for 600 ms, and the sip sensor detection signals the diversion of sample from the loop onto a C4 solid phase extraction (SPE) cartridge, where salts are washed off for 2500 ms with a mobile phase of water with 0.1% vol/vol FA at a flow rate of 1.5 ml/min. The column path is switched, and the sample is eluted off the cartridge and flowed into the mass spectrometer for 3000 ms with a mobile phase of acetonitrile and 0.1% vol/vol FA at a flow rate of 1.25 ml/min. The aspirator tip was washed separately with water and acetonitrile between sample aspirations (each for 600 ms) to minimize carryover contamination. Mass spectrometry was carried out using a Sciex API4000 triple quadrupole mass spectrometer (Applied Biosystems, Concord, ON, Canada) equipped with electrospray ionization (ESI) operated in the positive-ion mode. The product 7α, 12α-dihydroxy-4-cholesten-3-one and internal standard 7α-hydroxy-4-cholsten-3-one-d7 were detected using multiple reaction monitoring (MRM) with Q1/Q3 transitions at m/z 417.3 to 381.3 and m/z 408.3 to 390.3, respectively, with a dwell time of 100 ms and a collision energy of 24 V for each transition. The mass spectrometer used an ESI voltage of 5000 V and a source temperature of 650° C. Extracted ion chromatograms for each transition were integrated and processed using the RapidFire Integrator software. The data for each well were normalized by monitoring product conversion with the ratio of AUCproduct/(AUCinternal standard). The data was then fitted to a four parameter logistic fit using ActivityBase Software to calculate an IC50 of the inhibitor.
(Liver microsomes are vesicles of endoplasmic reticulum, rich in cytochrome P450 enzymes.)

Where a name gives a salt, the structure may show the parent alone.

A word on the IC50: it is the midpoint of a concentration-inhibition curve. A higher IC50 goes with weaker potency in that assay. The compound `Cc1cc(N2CC[C@H](C(=O)N3CCn4c(nnc4C(F)(F)F)C3)[C@H](C)C2)c2ccc(Cl)cc2n1` [Example 19, 7-chloro-2-methyl-4-[(3S,4S)-3-methyl-4-{[3-(trifluoromethyl)-5,6-dihydro[1,2,4]tria-zolo[4,3-a]pyrazin-7(8H)-yl]carbonyl}piper-idin-1-yl]quinolinium trifluoroacetate] registered an IC50 of 107 nM. Regarding `C[C@@H]1CN(c2ccnc3c(F)c(Cl)ccc23)CC[C@@H]1C(=O)N1CCn2c(nnc2C(F)(F)F)C1` [Example 20, 7-chloro-8-fluoro-4-[(3S,4S)-3-methyl-4-{[3-(trifluoromethyl)-5,6-dihydro[1,2,4]tria-zolo[4,3-a]pyrazin-7(8H)-yl]carbonyl}piper-idin-1-yl]quinolinium trifluoroacetate], the IC50 came to 14 nM. Take `C[C@@H]1CN(c2ccnc3cc(Cl)ccc23)CC[C@@H]1C(=O)N1CCn2c(nnc2C(F)(F)F)C1` [Example 21, [(3S,4S)-1-(7-chloroquinolin-4-yl)-3-methylpiperidin-4-yl][3-(trifluoromethyl)-5,6-dihydro[1,2,4]tria-zolo[4,3-a]pyrazin-7(8H)-yl]methanone]: it took 6.3 nM to reach half-maximal inhibition (IC50).

With `C[C@@H]1CN(c2ccnc3cc(F)ccc23)CC[C@@H]1C(=O)N1CCn2c(nnc2C(F)(F)F)C1` [Example 22, [(3S,4S)-1-(7-fluoroquinolin-4-yl)-3-methylpiperidin-4-yl][3-(trifluoromethyl)-5,6-dihydro[1,2,4]tria-zolo[4,3-a]pyrazin-7(8H)-yl]methanone], inhibition was half-maximal at 19 nM (IC50). The value for `COc1ccc2c(N3CC[C@H](C(=O)N4CCn5c(nnc5C(F)(F)F)C4)[C@H](C)C3)ccnc2c1` [Example 23, [(3S,4S)-1-(7-methoxyquinolin-4-yl)-3-methylpiperidin-4-yl][3-(trifluoromethyl)-5,6-dihydro[1,2,4]tria-zolo[4,3-a]pyrazin-7(8H)-yl]methanone] was 237 nM; that for `C[C@@H]1CN(c2ccnc3cc(C#N)ccc23)CC[C@@H]1C(=O)N1CCn2c(nnc2C(F)(F)F)C1` [Example 24, 4-[(3S,4S)-3-methyl-4-{[3-(trifluoromethyl)-5,6-dihydro[1,2,4]tria-zolo[4,3-a]pyrazin-7(8H)-yl]carbonyl}piper-idin-1-yl]quinoline-7-carbonitrile] was 8.4 nM. For `COc1cnc2c(N3CC[C@H](C(=O)N4CCn5c(nnc5C(F)(F)F)C4)[C@H](C)C3)ccnc2c1` [Example 25, [(3S,4S)-1-(7-methoxy-1,5-naphthyridin-4-yl)-3-methylpiperidin-4-yl][3-(trifluoromethyl)-5,6-dihydro[1,2,4]tria-zolo[4,3-a]pyrazin-7(8H)-yl]methanone] the value was 307 nM; for `COc1ccc2nccc(N3CC[C@H](C(=O)N4CCn5c(nnc5C(F)(F)F)C4)[C@H](C)C3)c2n1` [Example 26, [(3S,4S)-1-(6-methoxy-1,5-naphthyridin-4-yl)-3-methylpiperidin-4-yl][3-(trifluoromethyl)-5,6-dihydro[1,2,4]tria-zolo[4,3-a]pyrazin-7(8H)-yl]methanone], 18 nM. The value for `Cc1ccc2c(N3CC[C@H](C(=O)N4CCn5c(nnc5C(F)(F)F)C4)[C@H](C)C3)ccnc2n1` [Example 27, [(3S,4S)-3-methyl-1-(7-methyl-1,8-naphthyridin-4-yl)piperidin-4-yl][3-(trifluoromethyl)-5,6-dihydro[1,2,4]tria-zolo[4,3-a]pyrazin-7(8H)-yl]methanone] was 6700 nM. For `C[C@@H]1CN(c2ccnc3cc(C4CC4)ccc23)CC[C@@H]1C(=O)N1CCn2c(nnc2C(F)(F)F)C1` [Example 28, 7-cyclopropyl-4-[(3S,4S)-3-methyl-4-{[3-(trifluoromethyl)-5,6-dihydro[1,2,4]tria-zolo[4,3-a]pyrazin-7(8H)-yl]carbonyl}piper-idin-1-yl]quinolinium chloride], half-maximal inhibition (IC50) required 0.66 nM.

Take `C[C@@H]1CN(c2ccnc3cc(OC(F)(F)F)ccc23)CC[C@@H]1C(=O)N1CCn2c(nnc2C(F)(F)F)C1` [Example 29, {(3S,4S)-3-methyl-1-(7-(trifluoromethoxy)quinolin-4-yl]piperidin-4-yl}[3-(trifluoromethyl)-5,6-dihydro[1,2,4]tria-zolo[4,3-a]pyrazin-7(8H)-yl]methanone]: the IC50 came to 0.34 nM.

Take `C[C@@H]1CN(c2ccnc3cc(OCc4ccccc4)ccc23)CC[C@@H]1C(=O)N1CCn2c(nnc2C(F)(F)F)C1` [Example 30]: half-maximal inhibition (IC50) was put at 3.91 nM.

For `C[C@@H]1CN(c2ccnc3nc(C(F)(F)F)ccc23)CC[C@@H]1C(=O)N1CCn2c(nnc2C(F)(F)F)C1` [Example 31, {(3S,4S)-3-methyl-1-[7-(trifluoromethyl)-1,8-naphthyridin-4-yl]piperidin-4-yl}[3-(trifluoromethyl)-5,6-dihydro[1,2,4]tria-zolo[4,3-a]pyrazin-7(8H)-yl]methanone], the IC50 worked out at 2700 nM. The value for `C[C@@H]1CN(c2ccnc3c(Cl)c(Cl)ccc23)CC[C@@H]1C(=O)N1CCn2c(nnc2C(F)(F)F)C1` [Example 32, ((3S,4S)-1-(7,8-dichloroquinolin-4-yl)-3-methylpiperidin-4-yl)(3-(trifluoromethyl)-5,6-dihydro-[1,2,4]triazolo[4,3-a]pyrazin-7(8H)-yl)methanone] was 111 nM; that for `C[C@@H]1CN(c2ccnc3cc(OC(F)F)ccc23)CC[C@@H]1C(=O)N1CCn2c(nnc2C(F)(F)F)C1` [Example 33, {(3S,4S)-1-[7-(difluoromethoxy)quinolin-4-yl]-3-methylpiperidin-4-yl}[3-(trifluoromethyl)-5,6-dihydro[1,2,4]triazolo[4,3-a]pyrazin-7(8H)-yl]methanone] was 8.3 nM; that for `COc1ccc2c(N3CC[C@H](C(=O)N4CCn5c(nnc5C(F)(F)F)C4)[C@H](C)C3)c(C3CC3)cnc2c1` [Example 34, [(3S,4S)-1-(3-cyclopropyl-7-methoxyquinolin-4-yl)-3-methylpiperidin-4-yl][3-(trifluoromethyl)-5,6-dihydro[1,2,4]triazolo[4,3-a]pyrazin-7(8H)-yl]methanone] was 0.67 nM. The value for `Cc1cnc2cc(C(F)(F)F)ccc2c1N1CC[C@H](C(=O)N2CCn3c(nnc3C(F)(F)F)C2)[C@H](C)C1` [Example 35, {(3S,4S)-3-methyl-1-[3-methyl-7-(trifluoromethyl)quinolin-4-yl]piperidin-4-yl}[3-(trifluoromethyl)-5,6-dihydro[1,2,4]triazolo[4,3-a]pyrazin-7(8H)-yl]methanone] was 0.17 nM; that for `C[C@@H]1CN(c2c(Cl)cnc3cc(OC(F)(F)F)ccc23)CC[C@@H]1C(=O)N1CCn2c(nnc2C(F)(F)F)C1` [Example 36, {(3S,4S)-1-[3-chloro-7-(trifluoromethoxy)quinolin-4-yl]-3-methylpiperidin-4-yl}[3-(trifluoromethyl)-5,6-dihydro[1,2,4]triazolo[4,3-a]pyrazin-7(8H)-yl]methanone] was 0.35 nM; that for `C[C@@H]1CN(c2c(Cl)cnc3nc(C(F)(F)F)ccc23)CC[C@@H]1C(=O)N1CCn2c(nnc2C(F)(F)F)C1` [Example 37, {(3S,4S)-1-[3-chloro-7-(trifluoromethyl)-1,8-naphthyridin-4-yl]-3-methylpiperidin-4-yl}[3-(trifluoromethyl)-5,6-dihydro[1,2,4]triazolo[4,3-a]pyrazin-7(8H)-yl]methanone] was 1.3 nM.

As for `C[C@@H]1CN(c2ccnc3cc(O)ccc23)CC[C@@H]1C(=O)N1CCn2c(nnc2C(F)(F)F)C1` [Example 38, [(3S,4S)-1-(7-hydroxyquinolin-4-yl)-3-methylpiperidin-4-yl][3-(trifluoromethyl)-5,6-dihydro[1,2,4]triazolo[4,3-a]pyrazin-7(8H)-yl]methanone], the IC50 is 2890 nM.
